pIC50: −log10 of the molar value.
Target: T1, human β-Secretase (Homo sapiens, UniProt P56817)
T1 construct: The soluble part of the human β-Secretase (AA 1-AA 460) was cloned; made in house
Experiment: TR-FRET assay
Format: biochemical
Settings: soluble human β-Secretase (sBACE-Fc), substrate (Europium)[…](Qsy7) 100 nM, pH 4.5
Description: The enzyme used in the IGEN Cleavage-, Fluorescent-, TR-FRET- and BiaCore assays is described as follows: The soluble part of the human β-Secretase (AA 1-AA 460) was cloned into the […]-Fc10-1-IRES-GFP-neoK mammalian expression vector. The gene was fused to the Fc domain of IgG1 (affinity tag) and stably cloned into HEK 293 cells. Purified sBACE-Fc is stored in Tris buffer, pH 9.2 and has a purity of 95%. TR-FRET Assay Enzyme was diluted to 6 μg/mL and the substrate ([…]7) to 200 nM in reaction buffer (NaAcetate, chaps, triton x-100, EDTA pH 4.5). Compounds were diluted to the desired concentration in dimethyl sulfoxide (final dimethyl sulfoxide concentration in assay is 5%). […] Enzyme (9 μL) and 1 μL of compound in dimethyl sulfoxide was added to the plate, mixed and pre-incubated for 10 min. Substrate (10 μL) was added and the reaction proceeded in the dark for 15 min at RT. The reaction was stopped with the addition of 7 μL NaAcetate, pH 9.

T1 sequence (P56817 22-460): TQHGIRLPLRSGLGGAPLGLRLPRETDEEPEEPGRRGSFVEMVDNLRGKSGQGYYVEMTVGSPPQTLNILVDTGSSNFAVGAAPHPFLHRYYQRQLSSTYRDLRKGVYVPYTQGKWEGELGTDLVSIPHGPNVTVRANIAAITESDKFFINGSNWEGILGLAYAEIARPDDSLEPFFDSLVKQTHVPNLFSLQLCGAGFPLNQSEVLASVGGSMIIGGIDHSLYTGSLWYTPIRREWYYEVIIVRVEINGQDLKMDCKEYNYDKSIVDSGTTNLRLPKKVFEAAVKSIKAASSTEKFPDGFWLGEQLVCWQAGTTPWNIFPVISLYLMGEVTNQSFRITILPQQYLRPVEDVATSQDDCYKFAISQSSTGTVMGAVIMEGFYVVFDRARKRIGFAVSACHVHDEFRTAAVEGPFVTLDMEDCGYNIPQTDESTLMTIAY

pIC50	SMILES
6.60	COc1ccc(C2(c3cccc(-c4cncnc4)c3)N=C(N)N3CC(S(C)(=O)=O)CN=C32)cc1 (mixture of isomers) [Example 28, 8-(4-Methoxyphenyl)-3-(methylsulfonyl)-8-(3-pyrimidin-5-ylphenyl)-2,3,4,8-tetrahydroimidazol[1,5-a]pyrimidin-6-amine 2.0 acetate]
6.92	COc1ccc(C2(c3cccc(-c4cncnc4)c3)N=C(N)N3CC(O)CN=C32)cc1 (mixture of isomers) [Example 30, 6-Amino-8-(4-methoxyphenyl)-8-(3-pyrimidin-5-ylphenyl)-2,3,4,8-tetrahydroimidazo[1,5-a]pyrimidin-3-ol]
6.24	COc1ccc(C2(c3cccc(-c4cncnc4)c3)N=C(N)N3CC(OC)CN=C32)cc1 (mixture of isomers) [Example 32, 3-Methoxy-8-(4-methoxyphenyl)-8-(3-pyrimidin-5-ylphenyl)-2,3,4,8-tetrahydroimidazo[1,5-a]pyrimidin-6-amine]
7.23	COc1ccc(C2(c3cccc(-c4cncnc4)c3)N=C(N)N3CC(F)CN=C32)cc1 (mixture of isomers) [Example 50, 3-Fluoro-8-(4-methoxyphenyl)-8-(3-pyrimidin-5-ylphenyl)-2,3,4,8-tetrahydroimidazo[1,5-a]pyrimidin-6-amine 4.0 acetate]
7.12	COc1ccc(C2(c3cccc(-c4cccnc4)c3)N=C(N)N3CC(F)(F)CN=C32)cc1 (centres unmarked) [Example 40, 3,3-Difluoro-8-(4-methoxyphenyl)-8-(3-pyridin-3-ylphenyl)-2,3,4,8-tetrahydroimidazo[1,5-a]pyrimidin-6-amine 0.75 acetate]
7.52	COc1ccc(C2(c3cccc(-c4cncc(OC)c4)c3)N=C(N)N3CC(F)(F)CN=C32)cc1 (centres unmarked) [Example 41, 3,3-Difluoro-8-(4-methoxyphenal)-8-[3-(5-methoxypyridin-3-yl)phenyl]-2,3,4,8-tetrahydroimidazo[1,5-a]pyrimidin-6-amine 0.75 acetate]
7.54	COc1ccc(C2(c3cccc(-c4cccnc4F)c3)N=C(N)N3CC(F)(F)CN=C32)cc1 (centres unmarked) [Example 42, 3,3-Difluoro-8-[3-(2-fluoropyridin-3-yl)phenyl]-8-(4-methoxyphenyl)-2,3,48-tetrahydroimidazo[1,5-a]pyrimidin-6-amine 0.75 acetate]
7.39	COc1cncc(-c2cccc(C3(c4ccncc4)N=C(N)N4CC(F)(F)CN=C43)c2)c1 (centres unmarked) [Example 43, 3,3-Difluoro-8-[3-(5-methoxypyridin-3-yl)phenyl]-8-pyridin-4-yl-2,3,4,8-tetrahydroimidazo[1,5-a]pyrimidin-6-amine acetate]
6.92	NC1=NC(c2ccncc2)(c2cccc(-c3cccnc3F)c2)C2=NCC(F)(F)CN12 (centres unmarked) [Example 44, 3,3-Difluoro-8-[3-(2-fluoropyridin-3-yl)phenyl]-8-pyridin-4-yl-2,3,4,8-tetrahydroimidazo[1,5-a]pyrimidin-6-amine 0.75 acetate]
7.23	NC1=NC(c2ccncc2)(c2cccc(-c3cncc(F)c3)c2)C2=NCC(F)(F)CN12 (centres unmarked) [Example 47, 3,3-Difluoro-8-[3-(5-fluoropyridin-3-yl)phenyl]-8-pyridin-4-yl-2,3,4,8-tetrahydroimidazo[1,5-a]pyrimidin-6-amine acetate]
5.64	CN(C)C(=O)c1cccc(C2(c3cccc(-c4cccnc4F)c3)N=C(N)N3CC(F)(F)CN=C32)c1 (centres unmarked) [Example 69, 3-{6-Amino-3,3-difluoro-8-[3-(2-fluoropyridin-3-yl)phenyl]-2,3,4,8-tetrahydroimidazo[1,5-a]pyrimidin-8-yl}-N,N-dimethylbenzamide]
5.68	CN(C)C(=O)c1ccc(C2(c3cccc(-c4cccnc4F)c3)N=C(N)N3CC(F)(F)CN=C32)cc1 (centres unmarked) [Example 70, 4-{6-Amino-3,3-difluoro-8-[3-(2-fluoropyridin-3-yl)phenyl]-2,3,4,8-tetrahydroimidazo[1,5-a]pyrimidin-8-yl}-N,N-dimethylbenzamide]
7.39	COc1ccc(C2(c3ccc(F)c(-c4cccnc4F)c3)N=C(N)N3CC(F)(F)CN=C32)cc1C (centres unmarked) [Example 87, 3,3-Difluoro-8-(4-fluoro-3-(2-fluoropyridin-3-yl)phenyl)-8-(4-methoxy-3-methylphenyl)-2,3,4,8-tetrahydroimidazo[1,5-a]pyrimidin-6-amine acetate]
7.04	COc1ccc(C2(c3ccc(F)c(-c4cncnc4)c3)N=C(N)N3CC(F)(F)CN=C32)cc1C (centres unmarked) [Example 88, 3,3-Difluoro-8-(4-fluoro-3-(pyrimidin-5-yl)phenyl)-8-(4-methoxy-3-methylphenyl)-2,3,48-tetrahydroimidazo[1,5-a]pyrimidin-6-amine acetate]

From patent US20080214577A1, “New Compounds 320” (AstraZeneca AB, priority 2006, published 2008)
